# Experimental data as given in patent US20240353338A1 (priority 2023, published 2024).
# Tested on: early Delta variant of SARS-CoV-2
# Format: cell-based
compound,measurement,value
Nc1nnc(Sc2ncc([N+](=O)[O-])s2)s1 [Halicin],antiviral effectiveness (virus growth by reverse transcriptase quantitative PCR),inhibition of virus growth
